Earlier results in patent publication US5696156A, “Triterpene derivatives with immunosuppressant activity” (Merck & Co. Inc., priority 1996, dated 1997).

Tested on: Kv 1.3 channels
Settings: stated for the reference blocker that defines the efflux window

Substance: margatoxin (TIINVKCTSPKQCLPPCKAQFGQSAGAKCMNGKCKCYPH; UniProt P40755 1-39, looked up)
- IC50: 0.1 nM
